Values quoted from earlier work as cited in patent publication US20170343557A1, “USE OF 5-METHOXYTRYPTOPHAN AS DIAGNOSTIC AGENT OF INFLAMMATORY DISEASES” (NATIONAL HEALTH RESEARCH INSTITUTES, priority 2014, published 2017).

Legend:
[1] = system: cancer metastasis in a xenograft model
[2] = system: cancer cell migration and invasion
[3] = system: COX-2 expression in fibroblasts and cancer cells

SMILES: COc1ccc2[nH]cc(C[C@H](N)C(=O)O)c2c1 [5-MTP, 5-methoxytryptophan]
- Cancer metastasis [1]: reduces
- Cancer cell migration and invasion [2]: reduces
- Proinflammatory mediator-induced COX-2 expression [3]: inhibits
